{
  "source": "patent US20210308131A1",
  "about": "“Treatment Regimen” (GlaxoSmithKline Intellectual Property Development Limited, priority 2020, published 2021)",
  "key": {"[1]": {"assay": "Plasma and pulmonary (ELF, AM) pharmacokinetics after intravenous gepotidacin in healthy adult subjects", "format": "in vivo, human", "settings": "single IV infusion 1000 mg over 2 hours", "description": "(§1) Gepotidacin exposures were assessed in plasma and other matrices, such as urine, saliva, epithelial lining fluid (ELF), Alveolar Macrophages (AM), cervix, rectum and pharynx, as follows: • 1. […] Urine, plasma, cervix, rectum and pharynx swabs: • In a Phase 2a, single-center, single-arm, open-label study in the Unites States from July 2018 to January 2019 (see Overcash et al., Open Forum Infectious Diseases, Volume 6, Issue Supplement 2, October 2019, Page S539, https://doi.org/10.1093/ofid/ofz360.1343, incorporated herein by reference in its entirety), a total of 22 female participants with uncomplicated Urinary Tract Infection (uUTI) were enrolled and evaluated for pharmacokinetics (PK), safety, and clinical efficacy. […] Gepotidacin exposures in urine, cervix, rectum and pharynx were assessed.\nPlasma, Epithelial Lining Fluid (ELF) and Alveolar Macrophage (AM) PK were assessed following a single IV infusion of 1000 mg gepotidacin over 2 hours. […]"}, "[2]": {"assay": "Single-dose PK (saliva, urine, plasma) in subjects with renal impairment and matched controls", "format": "in vivo, human", "description": "Gepotidacin exposures were assessed in plasma and other matrices, such as urine, saliva, epithelial lining fluid (ELF), Alveolar Macrophages (AM), cervix, rectum and pharynx, as follows: • 1. Plasma, Epithelial Lining Fluid (ELF) and Alveolar Macrophage (AM) samples: A study to evaluate plasma and pulmonary pharmacokinetics (PK) following intravenous administration of gepotidacin in healthy adult subjects was conducted (see M Hossain, EF Dumont. Population Pharmacokinetic Modeling of Plasma and Epithelial Lining Fluid Data for a Novel Antimicrobial Compound. 54th Annual Interscience Conference on Antimicrobial Agents and Chemotherapy Meeting, 5-9 September 2014, Washington, D.C., USA, incorporated herein by reference in its entirety) • 2. Saliva, Urine and plasma samples: • a. A single-dose study to assess the PK of oral gepotidacin in male and female adult participants with varying degrees of hepatic impairment and in matched control participants with normal hepatic function (J. Hands et al. Pharmacokinetics of Gepotidacin in Subjects with Hepatic Impairment. ID Week, 2-6 Oct. 2019, Washington D.C., USA, incorporated herein by reference in its entirety) • b. A single-dose study to assess the PK of gepotidacin in adult subjects with varying degrees of renal impairment and in matched control subjects with normal renal function • 3. Urine, plasma, cervix, rectum and pharynx swabs: • In a Phase 2a, single-center, single-arm, open-label study in the Unites States from July 2018 to January 2019 (see Overcash et al., Open Forum Infectious Diseases, Volume 6, Issue Supplement 2, October 2019, Page S539, https://doi.org/10.1093/ofid/ofz360.1343, incorporated herein by reference in its entirety), a total of 22 female participants with uncomplicated Urinary Tract Infection (uUTI) were enrolled and evaluated for pharmacokinetics (PK), safety, and clinical efficacy. Participants were confined to the clinic from baseline (Days −1 to 1 predose) through on-therapy (Days 1 to 5) and returned as outpatients for test-of-cure (TOC; Days 10 to 13) and follow-up (Day 28±3). Participants received oral gepotidacin 1,500 mg twice daily (BID) for 5 days. […] The majority of participants were white, age ranged from 19 to 60 years, and body mass index ranged from 20.9 to 37.9 kg/m^2. The number of past uUTI episodes ranged from 0 to 10 over the past 12 months across participants; the majority of participants reported episodes. […] Gepotidacin exposures in urine, cervix, rectum and pharynx were assessed.\n(§2) Saliva, Urine and Plasma concentrations were determined after administration of gepotidacin 750 mg IV (healthy and renally impaired subjects) and 1500 mg orally (healthy and hepatically impaired subjects, as well as uUTI patients). […]"}, "[3]": {"assay": "Single-dose PK (saliva, urine, plasma) in participants with hepatic impairment and matched controls", "format": "in vivo, human", "settings": "1500 mg orally", "description": "as §1, §2"}, "[4]": {"assay": "Phase 2a study in female participants with uUTI: urine, plasma, cervix, rectum and pharynx swab PK and safety", "format": "in vivo, human", "description": "as §1, §2"}, "[5]": {"system": "NG isolate from the Phase 2 clinical trial with ParC D86N mutation", "format": "cell-based, Neisseria gonorrhoeae", "description": "10 mL of an initial bacterial density of 10^6 colony forming units (CFU)/mL was inoculated into the hollow-fiber cartridge (Fibercell Systems, Frederick, Md.), utilizing modified FB medium.\nSamples were collected for observation of simulated pharmacokinetic profiles and enumeration of bacterial burden over the study duration. All bacterial samples were plated on drug-free and agar supplemented with 2×the agar MIC value of each respective challenge compound."}, "[6]": {"assay": "Safety and pharmacokinetics in healthy adults and adolescents (Example 3)", "format": "in vivo, human", "description": "Healthy adults and adolescents within the age ranges of 19-64 and 12-17 years old, respectively, participated in the study.\nIn Part 1 of the study, gepotidacin was administered with food to healthy adults 18 years) in period 1 (1500 mg oral single dose), followed by period 2 (3000 mg×2 oral doses Q12 h) and period 3 (3000 mg×2 oral doses Q6 h).\nIn Part 2 of the study, gepotidacin was administered with food to adolescents (12 to <18 years) at the same dose regimens as period 1 (1500 mg oral single dose) and period 3 (3000 mg×2 oral doses Q6 h)."}, "Neisseria gonorrhoeae": {"system": "Neisseria gonorrhoeae", "settings": "cited from earlier work"}, "[7]": {"settings": "Period 1, 1500 mg oral single dose"}},
  "data": [
    {"smiles": "O=c1ccc2ncc(=O)n3c2n1C[C@H]3CN1CCC(NCc2cc3c(cn2)OCCC3)CC1", "note": "[gepotidacin, (2R)-2-({4-[(3,4-Dihydro-2H-pyrano[2,3-c]pyridin-6-ylmethyl)amino]-1-piperidinyl}methyl)-1,2-dihydro-3H,8H-2a,5,8a-triazaacenaphthylene-3,8-dione]", "values": [
      {"measurement": "AM AUC(0-12) relative to ELF", "setting": "[1]", "result": "~97", "unit": "fold"},
      {"measurement": "AM Cmax relative to ELF", "setting": "[1]", "result": "approximately 120 fold"},
      {"measurement": "gepotidacin dose removed in the urine (fe %)", "setting": "[2]; ESRD subjects not on hemodialysis", "result": 7.9, "unit": "%"},
      {"measurement": "gepotidacin dose excreted in the urine", "setting": "[2]; ESRD subjects on hemodialysis", "result": "Less than 2%"},
      {"measurement": "gepotidacin dose removed in the urine (fe %)", "setting": "[2]; moderate renal impairment subjects", "result": 22.1, "unit": "%"},
      {"measurement": "gepotidacin dose removed in the urine (fe %)", "setting": "[2]; normal renal function subjects", "result": 37.4, "unit": "%"},
      {"measurement": "urinary exposure (AUC[0-48]) relative to matched healthy controls", "setting": "[3]; moderate hepatic impairment", "result": "approximately 3.2 fold"},
      {"measurement": "urinary exposure (AUC[0-48]) relative to matched healthy controls", "setting": "[3]; severe hepatic impairment", "result": "~3.9", "unit": "fold"},
      {"measurement": "rank order of gepotidacin free-drug concentrations", "setting": "[4]; 1500 mg BID, uUTI patients, swabs and plasma", "result": "highest in rectal tissue; followed by cervical tissue, which was similar to plasma concentrations; followed by pharyngeal tissue"},
      {"measurement": "discontinuations due to adverse events", "setting": "[4]; oral 1,500 mg BID for 5 days, 22 female uUTI participants", "result": "no discontinuations due to adverse events"},
      {"measurement": "doses preventing amplification of resistance within the system", "setting": "[5]; gepotidacin-resistant subpopulation on Day 7", "result": 4.5, "unit": "g"},
      {"measurement": "total daily doses that prevented resistance amplification to gepotidacin", "setting": "[5]; including 2 x 3 g doses 8 or 12 hours apart", "result": "≥ 4500", "unit": "mg"},
      {"measurement": "doses sterilizing the system over the seven-day period", "setting": "[5]; simulated single oral dose free-drug plasma profiles, 0.75 to 12 g", "result": "≥ 4.5", "unit": "g"},
      {"measurement": "tolerability", "setting": "[6]; 1500 mg oral single dose, adults and adolescents, few mild GI AEs", "result": "generally well tolerated"},
      {"measurement": "maximum concentration (Cmax), adolescents compared to adults", "setting": "[6]; [7]", "result": "similar"},
      {"measurement": "median area under the curve (AUC), adolescents compared to adults", "setting": "[6]; [7]", "result": "slightly higher"},
      {"measurement": "AUC following the second dose, adolescents versus adults", "setting": "[6]; Period 3, 3000 mg x 2 Q6 h", "result": "higher"},
      {"measurement": "Cmax following the second dose, adolescents versus adults", "setting": "[6]; Period 3, 3000 mg x 2 Q6 h", "result": "similar"},
      {"measurement": "subjects above the Cmax value of potential clinical concern", "setting": "[6]; adolescents, 3000 mg x 2 Q6 h", "result": 58, "unit": "%"},
      {"measurement": "AUC0-t following the first dose, Q12 h versus Q6 h", "setting": "[6]; adults, 3000 mg", "result": "similar"},
      {"measurement": "accumulation ratios, Q6 h compared to Q12 h", "setting": "[6]; adults, 3000 mg x 2", "result": "Higher"},
      {"measurement": "subjects above the Cmax value of potential clinical concern", "setting": "[6]; adults, 3000 mg x 2 Q6 h", "result": 46, "unit": "%"},
      {"measurement": "subjects above the Cmax value of potential clinical concern", "setting": "[6]; adults, 3000 mg x 2 Q12 h", "result": 15, "unit": "%"},
      {"measurement": "safety issues related to QT or AchE-I", "setting": "[6]; in vivo", "result": "No observed safety issues related to QT or AchE-I"},
      {"measurement": "microbiological successes (bacterial eradication)", "setting": "Neisseria gonorrhoeae; number of the 8 participants with D86N-positive baseline urogenital NG isolates", "result": 5},
      {"measurement": "efficacy (bacterial eradication) against urogenital infection caused by NG", "setting": "Neisseria gonorrhoeae; single oral doses of 1.5 g and 3 g", "result": "≥ 95", "unit": "%"},
      {"measurement": "safety signals", "setting": "Neisseria gonorrhoeae; single oral doses of 1500 and 3000 mg", "result": "no unexpected safety signals"},
      {"measurement": "participants who failed therapy at the urogenital body site", "setting": "Neisseria gonorrhoeae; total number, single oral 1500 or 3000 mg", "result": 3}
    ]},
    {"smiles": "CO/N=C(\\C(=O)N[C@@H]1C(=O)N2C(C(=O)O)=C(CSc3nc(=O)c(=O)[nH]n3C)CS[C@H]12)c1csc(N)n1", "note": "[ceftriaxone, reference compound]", "values": [
      {"measurement": "performance of control in hollow fibre infection model", "setting": "[5]; simulated ciprofloxacin 0.5 g oral, ceftriaxone 0.25 g intramuscular, isolate ciprofloxacin-resistant, ceftriaxone-susceptible", "result": "performed as expected"}
    ]}
  ]
}
